Experimental data: patent US12503452B2 (Curza Global, LLC, priority 2019, dated 2025)
Where a name gives a salt, the structure may show the parent alone. Read-outs that look alike come from different tables or passages of the source.

Legend:
[1] = molecular target: Rabbit Reticulocyte Lysate (eukaryotic protein synthesis); test: Rabbit reticulocyte lysate luciferase assay (inhibition of eukaryotic protein synthesis); assay type: biochemical; details: read-out: Rabbit reticulocyte IC50 (μM/% inhib.)
Method: Inhibition of eukaryotic protein synthesis was determined using the Rabbit Reticulocyte Lysate System, Nuclease-Treated from Promega (catalog #L-4960) with slight modifications to the manufacturer's protocol. Compounds were serial diluted in 0.5 mL microcentrifuge tubes by mixing and transferring 50 μL from the highest concentration to 50 μL of water, mixing and transferring 50 μL of this 2-fold dilution to 50 μL of water. This mixing and transferring was repeated so that there are a total of 8 tubes with serial dilutions of compound at 10× the desired screening concentration that are ultimately diluted to 1× by the addition of rabbit reticulocyte luciferase synthesis mixture. Serial dilutions of compounds were added ([…]) to wells in a black round bottom 96-well plate. Water (2.5 μL) was used as a “no inhibitor” control in 4 wells/plate. No RNA control reaction mixture ([…]; see below) was used as a control in 4 wells/plate for background luminescence. Rabbit reticulocyte luciferase synthesis mixture (22.5 μL; see below) was added to wells with compounds or water mixture and incubated at 30° C. for 90 minutes. Luciferase assay reagent (25 μL) was added with luminescence measured using a BioTek Synergy HTX plate reader. % Inhibition was determined relative to no inhibitor controls.
Rabbit reticulocyte luciferase synthesis mixture:
• 1,000 μL rabbit reticulocyte lysate • 5.7 μL Luciferase Control RNA (1 μg/μL) • 26 μL complete amino acid mixture • 395 μL water No RNA Control • 70 μL rabbit reticulocyte lysate • 2 μL complete amino acid mixture • 28 μL water Minimum Inhibitory Concentration (MIC)

P. aeruginosa (Pa) = test: Broth microdilution minimum inhibitory concentration (MIC); assay type: cell-based; details: Pseudomonas aeruginosa, P. aeruginosa; growth medium supplemented with sodium bicarbonate; read-out: Pa MIC + bicarb
Method: (§1) A certified BSL-2 laboratory was used for testing. Compounds were evaluated using the broth microdilution minimum inhibitory concentration (MIC) and minimum bactericidal concentration (MBC) assays defined by Clinical and Laboratory Standards Institute (CLSI) in the M26-A guideline against S. aureus (Sa), E. coli (Ec), K. pneumoniae (Kp), A. baumannii (Ab), E. faecalis (Ef) and P. aeruginosa (Pa).
(§2) MICs were determined using the Clinical Laboratory and Standards Institute (CLSI) Broth Microdilution Method with slight modification. Clinical and Laboratory Standards Institute (2012). “Methods for dilution antimicrobial susceptibility tests for bacteria that grow aerobically; approved standard, 9th ed. M07-A9. Clinical and Laboratory Standards Institute, Wayne, PA” Serial two-fold dilutions of compounds are prepared in sterile clear round-bottom 96-well plates.
(§3) To prepare microdilution trays, two-fold dilutions of antimicrobial agent are prepared in growth medium: Cation-Adjusted Mueller-Hinton Broth (CAMHB), or CAMHB supplemented with sodium bicarbonate (6.25 or 25 mM final concentration prepared from a 1.0M stock solution) or CAMHB supplemented with heat inactivated human serum (Fisher Cat. #BP2657100) 0-50% by adding 200 μL of the highest concentration to be tested (64 μg/mL, for example) in row A, mixing and transferring 100 μL from row A to 100 μL growth medium in row B, then repeating the mixing and transferring through row H of the 96-well plate, discarding the excess 100 μL remaining. This slight modification to the CLSI protocol enables evaluation of MICs for 3 compounds per plate in triplicate, albeit with only 8 compound dilutions (CLSI protocol enables 2 compounds in triplicate with 10 dilutions). Bacterial suspensions are added to a final concentration of 5×10^4 CFU/well by adding 5 μL of a 1:10 dilution of a 0.5 McFarland suspension (1×10^8 CFU/mL) for each bacterium evaluated. Bacterial suspensions were prepared using the growth method described by CLSI. Well-isolated colonies (3-5 from an agar plate) were selected using a sterile loop and used to inoculate a tube containing 4 mL of CAMHB. The cultures are incubated at 35±2° C. until it achieves or exceeds the turbidity of the 0.5 McFarland standard, determined by measuring A600nm (usually two to six hours). When growth exceeds a 0.5 McFarland standard, the turbidity is adjusted with broth to be equivalent to a 0.5 McFarland standard.

E. coli (Ec) = test: as above; assay type: cell-based; details: Escherichia coli, read-out: E. coli + bicarb MIC
Method: as §1, §2, §3

[2] = system: E. coli S30 extract (bacterial protein synthesis); test: E. coli S30 extract coupled transcription-translation luciferase assay (inhibition of bacterial protein synthesis); assay type: biochemical; details: read-out: S30 IC50 (μM/% inhib.)
Method: E. coli S30 extract: Inhibition of bacterial protein synthesis was determined using the E. coli S30 Extract System for Circular DNA (Promega catalog #L-2010) and Luciferase Assay Reagent (Promega catalog #E1500) with slight modifications to a published protocol. Fyfe, C., Sutcliffe, J. A. and Grossman, T. H. (2012) “Development and characterization of a Pseudomonas aeruginosa in vitro coupled transcription-translation assay system for evaluation of translation inhibitors” J. Microbiol. Methods 90(3), 256-261.
Compounds were serial diluted in 0.5 mL microcentrifuge tubes by mixing and transferring 50 μL from the highest concentration to 50 μL of water, mixing and transferring 50 μL of this 2-fold dilution to 50 μL of water. This mixing and transferring was repeated so that there are a total of 8 tubes with serial dilutions of compound at 10× the desired screening concentration that are ultimately diluted to 1× by the addition of S30 luciferase synthesis mixture. Serial dilutions of compounds were added (2 μL) to wells in a black round bottom 96-well plate. Water (2 μL) was used as a “no inhibitor” control in 4 wells/plate. No DNA control reaction mixture (20 μL; see below) was used as a control in 4 wells/plate for background luminescence. S30 luciferase synthesis mixture (18 μL; see below) was added to wells with compounds or water mixture and incubated at 37° C. for 1 hour. Reactions were stopped by transferring to 4° C. refrigerator for 5 minutes then 25 μL of luciferase activity mix was added. Luminescence was measured using a BioTek Synergy HTX plate reader. % Inhibition was determined relative to no inhibitor controls.
S30 luciferase synthesis mixture:
• 445 μL S30 extract, circular • 712 μL S30 Premix without amino acids • 4.45 μL pBESTluc™ DNA (1 μg/μL) • 78 μL complete amino acid mixture • 267 μL water No DNA control: • 20 μL S30 extract, circular • 32 μL S30 Premix without amino acids • 7 μL complete amino acid mixture • 21 μL water Rabbit Reticulocyte lysate

A. baumannii (Ab) = test: Broth microdilution minimum inhibitory concentration (MIC); assay type: cell-based; details: Acinetobacter baumannii; A. baumannii; growth medium supplemented with sodium bicarbonate; read-out: Ab + bicarb MIC
Method: as §1, §2, §3

[3] = class by IC50 or % inhibition @ 1 μM
[4] = E. coli, growth medium supplemented with sodium bicarbonate
[5] = E. coli, growth medium with sodium bicarbonate

Row | Structure (SMILES) | IC50 [1, 3] [µM] | IC50 [2, 3] [µM] | MIC (E. coli (Ec); [5]) [µg/mL] | other results
1 | CC(C)(N)C(=O)N1CCN(C(=O)Nc2ccn(-c3cccc(CCN4CCC(N)CC4)c3)c(=O)n2)CC1 [Compound 2] | > 1 | < 0.5 |  | MIC (P. aeruginosa (Pa)): > 32 µg/mL; MIC (E. coli (Ec); [4]): 8 to 32 µg/mL
2 | C[C@H]1CN(C(=O)C(C)(C)N)CCN1C(=O)Nc1ccn(-c2ccc(CN3CCC(N)CC3)cc2)c(=O)n1 [Compound 56] | > 1 | < 0.5 |  | MIC (P. aeruginosa (Pa)): > 32 µg/mL; MIC (E. coli (Ec); [4]): < 8 µg/mL
3 | CC(C)(N)C(=O)N1CCN(C(=O)Nc2ccn(-c3ccc(CN4CCC(N)CC4)cc3)c(=O)c2)[C@H](C(=O)O)C1 [Compound 64] | > 1 | < 0.5 |  | MIC (P. aeruginosa (Pa)): > 32 µg/mL; MIC (E. coli (Ec); [4]): > 32 µg/mL
4 | C[C@@H]1CN(C(=O)Nc2ccn(-c3ccc(CN4CCC(CN)CC4)cc3)c(=O)n2)CCN1C(=O)C(C)(C)N [Compound 65] | > 1 | < 0.5 |  | MIC (P. aeruginosa (Pa)): > 32 µg/mL; MIC (E. coli (Ec); [4]): < 8 µg/mL
5 | CC(C)(N)C(=O)N1CCN(C(=O)Nc2ccn(-c3ccc(CN4CCC(N)CC4)c(Cl)c3)c(=O)n2)CC1 [Compound 99] | > 1 | < 0.5 |  | MIC (P. aeruginosa (Pa)): > 32 µg/mL; MIC (E. coli (Ec); [4]): < 8 µg/mL
6 | C[C@](N)(CO)C(=O)N1CCN(C(=O)Nc2ccn(-c3cc(CN4CCC(N)CC4)cc(OC(F)(F)F)c3)c(=O)n2)CC1 [Compound 103] | > 1 | > 1 |  | MIC (A. baumannii (Ab)): > 32 µg/mL; MIC (E. coli (Ec); [4]): > 32 µg/mL
7 | C[C@@H](N)C1CCN(Cc2ccc(-n3ccc(NC(=O)N4CCN(C(=O)[C@@](C)(N)CO)CC4)nc3=O)cc2)CC1 [Compound 222] | > 1 | < 0.5 | < 8 | 
8 | CC(C)(N)CN1CCN(Cc2ccc(-n3ccc(NC(=O)N4CCN(C(=O)C(C)(C)N)CC4)nc3=O)cc2)CC1 [Compound 226] | > 1 | < 0.5 | < 8 | 
9 | CC(C)(N)N1CCN(C(=O)Nc2ccn(-c3ccc(CN4CCC(N)CC4)cc3)c(=O)n2)CC1 [Compound 230] | > 1 | > 1 | 8 to 32 | 
10 | Cc1cn(-c2ccc(CN3CCC(N)CC3)cc2)c(=O)nc1NC(=O)N1CCN(C(=O)C(C)(C)N)CC1 [Compound 234] | > 1 | > 1 | > 32 | 
11 | CC(C)(N)C(=O)N1CCN(C(=O)Nc2ccn(-c3ccc(CN4CCC[C@@H](N)C4)cc3)c(=O)n2)CC1 [Compound 236] | > 1 | > 1 | < 8 | 
12 | CC(C)(N)C(=O)N1CCN(C(=O)Nc2ccn(-c3ccc(CN4CCC[C@H](N)C4)cc3)c(=O)n2)CC1 [Compound 237] | > 1 | 0.5 to 1 | < 8 | 
13 | CC1(N)CN(Cc2ccc(-n3ccc(NC(=O)N4CCN(C(=O)C(C)(C)N)CC4)nc3=O)cc2)C1 [Compound 238] | > 1 | > 1 | < 8 | 
14 | CC(C)(N)C(=O)N1CCN(C(=O)Nc2ccn(-c3ccc(CN4CC[C@@H](N)C4)cc3)c(=O)n2)CC1 [Compound 239] | > 1 | < 0.5 | < 8 | 
15 | CC(C)(N)C(=O)N1CCN(C(=O)Nc2ccn(-c3ccc(CN4CCCCC(N)C4)cc3)c(=O)n2)CC1 (stereo not drawn) [Compound 240] | > 1 | 0.5 to 1 | > 32 | 
16 | CC(C)(N)C(=O)N1CCN(C(=O)Nc2ccn(-c3ccc(CN4CC[C@H](N)C4)cc3)c(=O)n2)CC1 [Compound 241] | > 1 | < 0.5 | 8 to 32 | 
17 | CC(C)(N)C(=O)N1CCN(C(=O)Nc2ccn(-c3ccc(CN4CC(N)C4)cc3)c(=O)n2)CC1 [Compound 244] | > 1 | > 1 | < 8 | 
18 | CC1(N)CCCN(Cc2ccc(-n3ccc(NC(=O)N4CCN(C(=O)C(C)(C)N)CC4)nc3=O)cc2)C1 (stereo not drawn) [Compound 246] | > 1 | > 1 | < 8 | 
19 | CC(C)(N)C(=O)N1CCN(C(=O)Nc2ccn(-c3ccc(CN4CCC(F)(CN)CC4)cc3)c(=O)n2)CC1 [Compound 248] | > 1 | < 0.5 | < 8 | 
20 | CNC1CCN(Cc2ccc(-n3ccc(NC(=O)N4CCN(C(=O)C(C)(C)N)CC4)nc3=O)cc2)CC1 [Compound 250] | > 1 | < 0.5 | < 8 | 
21 | CC1CC(N)CCN1Cc1ccc(-n2ccc(NC(=O)N3CCN(C(=O)C(C)(C)N)CC3)nc2=O)cc1 (stereo not drawn) [Compound 252] | > 1 | < 0.5 | < 8 | 
22 | CC(C)(N)C(=O)N1CCN(C(=O)Nc2ccn(-c3ccc(CN4CCC(C(C)(C)N)CC4)cc3)c(=O)n2)CC1 [Compound 253] | > 1 | < 0.5 | < 8 | 
23 | CC1(N)CCCN(Cc2ccc(-n3ccc(NC(=O)N4CCN(C(=O)C(C)(C)N)CC4)nc3=O)cc2)CC1.Cl (stereo not drawn) [Compound 255] | > 1 | < 0.5 | < 8 | 
24 | CC(C)(N)C(=O)N1CCN(C(=O)Nc2ccn(-c3ccc(CN4CC[C@@H](N)C(O)C4)cc3)c(=O)n2)CC1 (stereo partly drawn) [Compound 267] | > 1 | < 0.5 | < 8 | 
25 | CC(Cc1ccc(-n2ccc(NC(=O)N3CCN(C(=O)C(C)(C)N)CC3)nc2=O)cc1)NCC1CNC1 (stereo not drawn) [Compound 346, hydrochloride salt] | > 1 |  |  | MIC (E. coli (Ec)): > 32 µg/mL; IC50 ([2]; class by IC50 or % inhibition @ 1 μM, hydrochloride salt): 0.5 to 1 µM
26 | C[C@](N)(CO)C(=O)N1CCN(C(=O)Nc2ccn(-c3ccc(CCN4CCCC(N)CC4)cc3)c(=O)n2)CC1 (stereo partly drawn) [Compound 381] |  |  | < 8 | IC50 ([1]; % inhibition @ 1 μM): > 1 µM; IC50 ([2]; % inhibition @ 1 μM): < 0.5 µM
